# Laboratory results taken from patent publication US8101649B2, “N-acylhydrazone derivatives useful as modulators of nicotinic acetylcholine receptors” (Neurosearch A/S, priority 2007, dated 2012).
# pEC50: −log10 of the molar value.
# Biological target: T1, wild-type nAChR α7 receptors (Homo sapiens, UniProt P36544)
# T1 construct: expressed in transfected cells; host or cells: Xenopus laevis oocytes
# Assay: Positive modulation of acetylcholine-induced currents at nAChR α7 receptors expressed in Xenopus laevis oocytes (two-electrode voltage clamp)
# Assay type: cell-based
# Details: 100 μM acetylcholine; (test-control)/control*100%; fitted to the sigmoidal logistic equation
# Method: In this example the positive modulation of wild-type nAChR α7 receptors by Compound 3 (FIGS. 1A and 1B) was determined using nAChR α7 receptors heterologously expressed in Xenopus laevis oocytes.
# The electrical current through the nAChR α7 channel was measured using conventional two-electrode voltage clamp and nAChR α7 currents were activated by applying pulses of agonist-containing solution onto the nAChR α7 expressing oocyte.
# In brief, the oocytes were placed in a recording chambers and continuously superfused with an Oocyte Ringer (OR) solution containing 90 mM NaCl, 2.5 mM KCl, 2.5 mM CaCl2, 1 mM MgCl2 and 5 mM HEPES (pH adjusted to 7.4). The oocytes were clamped at −60 mV and currents were induced by applying 20 s pulses of 100 μM acetylcholine dissolved in OR. The intervals between the acetylcholine applications were 5 minutes, during which the oocytes were washed with OR. The first three applications were control applications to insure a constant response level of 100 μM acetylcholine.
# The positive modulation in the presence of Compound 3 was calculated as (test-control)/control*100% and the concentration response curve for this positive modulation was fitted to the sigmoidal logistic equation: I=Imax/(1+(EC50/[compound])^n), where Imax represents the maximal modulation of the control response, EC50 is the concentration causing a half maximal response, and n is the slope coefficient.
# T1 sequence (P36544 23-502): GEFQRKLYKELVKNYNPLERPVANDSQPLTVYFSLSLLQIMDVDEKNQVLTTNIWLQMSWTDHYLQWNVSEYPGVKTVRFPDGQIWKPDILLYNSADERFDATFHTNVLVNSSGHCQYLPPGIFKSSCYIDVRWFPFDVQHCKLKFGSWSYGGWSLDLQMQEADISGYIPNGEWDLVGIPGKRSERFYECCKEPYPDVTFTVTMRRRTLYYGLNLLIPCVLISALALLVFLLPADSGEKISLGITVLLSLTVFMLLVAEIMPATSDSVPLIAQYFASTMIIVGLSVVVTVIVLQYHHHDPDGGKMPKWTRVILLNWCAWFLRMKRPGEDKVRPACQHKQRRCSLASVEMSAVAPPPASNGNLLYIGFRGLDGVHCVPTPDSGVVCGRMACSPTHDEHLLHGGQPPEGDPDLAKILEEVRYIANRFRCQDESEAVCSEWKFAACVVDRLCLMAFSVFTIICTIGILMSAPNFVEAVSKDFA
row,Imax (maximal modulation of the acetylcholine control response) [%],SMILES
1,140,"O=C(CCc1c[nH]c2ccccc12)N/N=C/c1ccc(F)cc1 [Compound 3, 3-(1H-Indol-3-yl)-propionic acid [1-(4-fluoro-phenyl)-meth-(E)-ylidene]-hydrazide]"

# Same assay, conditions: 100 μM acetylcholine; oocytes clamped at −60 mV; 0.01-31.6 μM compound applied 30 s before and during acetylcholine; read-out: EC50 (concentration causing a half maximal response) for positive modulation of acetylcholine responses
row,pEC50,SMILES
1,5.39,"O=C(CCc1c[nH]c2ccccc12)N/N=C/c1ccc(F)cc1 [Compound 3, 3-(1H-Indol-3-yl)-propionic acid [1-(4-fluoro-phenyl)-meth-(E)-ylidene]-hydrazide]"

# Same assay, conditions: 0.01-31.6 μM compound with 100 μM acetylcholine
row,effect on acetylcholine-induced current amplitude,SMILES
1,robust increase,"O=C(CCc1c[nH]c2ccccc12)N/N=C/c1ccc(F)cc1 [Compound 3, 3-(1H-Indol-3-yl)-propionic acid [1-(4-fluoro-phenyl)-meth-(E)-ylidene]-hydrazide]"

# Tested on: not given
# Assay: not given
# Details: not given
row,melting point [°C],SMILES
1,132.8 to 134,"O=C(CCc1c[nH]c2ccc(F)cc12)N/N=C/c1ccccc1F [Compound 3J, 3-(5-Fluoro-1H-indol-3-yl)-propionic acid [1-(2-fluoro-phenyl)-meth-(E)-ylidene]-hydrazide]"
2,156.2 to 158.2,"C/C(=N\NC(=O)CCc1c[nH]c2ccccc12)c1ccccc1 [Compound 3K, 3-(1H-Indol-3-yl)-propionic acid [1-phenyl-eth-(E)-ylidene]-hydrazide]"
3,119.3 to 120.2,"O=C(CCc1c[nH]c2ccccc12)N/N=C1\CCCc2ccccc21 [Compound 3L, 3-(1H-Indol-3-yl)-propionic acid [3,4-dihydro-2H-naphthalen-(1E)-ylidene]-hydrazide]"
4,213.8 to 215.3,"O=C(CCc1c[nH]c2ccc(F)cc12)N/N=C/c1ccc(F)cc1 [Compound 3M, 3-(5-Fluoro-1H-indol-3-yl)-propionic acid [1-(4-fluoro-phenyl)-meth-(E)-ylidene]-hydrazide]"
5,248.6 to 249.5,"CC1=C/C(=N/NC(=O)CCc2c[nH]c3ccccc23)c2ccccc2C1=O [Compound 3N, 3-(1H-Indol-3-yl)-propionic acid [3-methyl-4-oxo-4H-naphthalen-(1Z)-ylidene]-hydrazide]"

# Continued, compound first:
row,SMILES,melting point [°C]
1,"O=C(CCc1c[nH]c2ccccc12)N/N=C/c1ccccc1 [Compound 3A, 3-(1H-Indol-3-yl)-propionic acid [1-phenyl-meth-(E)-ylidene]-hydrazide]",169.8 to 171.2
2,"COc1ccc(/C=N/NC(=O)CCc2c[nH]c3ccccc23)cc1 [Compound 3B, 3-(1H-Indol-3-yl)-propionic acid [1-(4-methoxy-phenyl)-meth-(E)-ylidene]-hydrazide]",168.3 to 169.7
3,"O=C(CCc1c[nH]c2ccccc12)N/N=C/c1ccsc1 [Compound 3D, 3-(1H-Indol-3-yl)-propionic acid [1-thiophen-3-yl-meth-(E)-ylidene]-hydrazide]",145.5 to 148.1
4,"O=C(CCc1c[nH]c2ccccc12)N/N=C/c1ccccc1F [Compound 3E, 3-(1H-Indol-3-yl)-propionic acid [1-(2-fluoro-phenyl)-meth-(E)-ylidene]-hydrazide]",118 to 123
5,"O=C(CCc1c[nH]c2ccccc12)N/N=C/c1cccs1 [Compound 3F, 3-(1H-Indol-3-yl)-propionic acid [1-thiophen-2-yl-meth-(E)-ylidene]-hydrazide]",146.5 to 149.4
6,"O=C(CCc1c[nH]c2ccccc12)N/N=C/c1ccc(Cl)cc1 [Compound 3G, 3-(1H-Indol-3-yl)-propionic acid [1-(4-chloro-phenyl)-meth-(E)-ylidene]-hydrazide]",201.5 to 202.5
7,"O=C(CCc1c[nH]c2ccc(F)cc12)N/N=C/c1ccccc1 [Compound 3I, 3-(5-Fluoro-1H-indol-3-yl)-propionic acid [1-phenyl-meth-(E)-ylidene]-hydrazide]",171.2 to 173.9
